Drawing on patent publication US10961228B2, “JAK1 selective inhibitors” (AstraZeneca AB, priority 2017, dated 2021), this text covers IC50 for 15 compounds.

Structures are written as SMILES. Bounds are passed on as bounds.

For test [1], the target named is recombinant JAK3 (amino acids 781-1124) (Homo sapiens (Human), UniProt P52333). Kind of test: Enzyme inhibition studies, JAK3 (5 mM ATP, Caliper). It counts as biochemical. On the procedure: (§1) JAK enzyme was expressed as N-terminal GST fusion in insect cells and purified by glutathione-affinity and size-exclusion chromatographies. Enzymes were assayed at their approximated high end of physiological ATP concentration of 5 mM, in the presence of inhibitor dosed at 30, 3, 0.3, 0.03, 0.003 and 0 μM final test concentrations.
recombinant JAK3 (amino acids 781-1124), sequence (P52333 781-1124): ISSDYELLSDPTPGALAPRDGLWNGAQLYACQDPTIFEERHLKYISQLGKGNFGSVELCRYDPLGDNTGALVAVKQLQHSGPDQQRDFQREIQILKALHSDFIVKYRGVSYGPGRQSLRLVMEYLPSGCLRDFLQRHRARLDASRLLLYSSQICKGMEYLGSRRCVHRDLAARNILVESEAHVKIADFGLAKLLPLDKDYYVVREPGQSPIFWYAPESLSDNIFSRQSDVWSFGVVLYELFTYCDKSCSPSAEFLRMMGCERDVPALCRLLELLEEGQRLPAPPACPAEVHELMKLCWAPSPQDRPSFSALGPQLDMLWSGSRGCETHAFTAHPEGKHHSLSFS
(§2) Phosphorylated and unphosphotylated peptides were separated and quantified by a Caliper LC3000 system (Caliper Life Sciences, MA) for calculating percent inhibition.

Test [2] addresses recombinant JAK2 (amino acids 831-1132) (Homo sapiens (Human), UniProt O60674). Briefly: Enzyme inhibition studies, JAK2 (5 mM ATP, Caliper). The format is biochemical. How it is done: as §1, §2
The target of test [3] is recombinant JAK1 (amino acids 866-1154) (Homo sapiens (Human), UniProt P23458). Briefly: Enzyme inhibition studies, JAK1 (5 mM ATP, Caliper). It counts as biochemical. On the procedure:
as §1, §2

Test [4] deals with IL-13 induced STAT6 promotor luciferase reporter in U937 monocytes (U937-STAT6-Luc). Kind of test: Cellular interleukin (IL-13) induced JAK-STAT6-luciferase assay (pSTAT6). The note with it: Homo sapiens, U-937; IL-13 induced STAT6-luciferase, U937-STAT6-Luc cells. The format is cell-based. How it is done:
Cells were harvested by centrifugation at 250 g for 5 min and resuspended in Assay buffer (20 mM HEPES, 1×HBSS and 0.1% BSA) to 1000 cells pr μl. For stimulation of cells was used interleukin (IL-13) also dissolved in Assay buffer to […]. […] Test and control compounds were applied to assay plates (low vol white 384-well plates) in serial dilutions from 10 mM to 0.5 nM at 5 nl pr well in DMSO.
To each well was added 4 μl cells and 4 μl interleukin (IL-13) and the plates were sealed and incubated at 37° C. for 4½ h and then at room temperature for 30 min. The assay was developed by addition of 4 μl pr well of SteadyGlo (Promega) and after […] the plates were read at an Envision plate reader with luminescence filter.

recombinant JAK1 (amino acids 866-1154), sequence (P23458 866-1154): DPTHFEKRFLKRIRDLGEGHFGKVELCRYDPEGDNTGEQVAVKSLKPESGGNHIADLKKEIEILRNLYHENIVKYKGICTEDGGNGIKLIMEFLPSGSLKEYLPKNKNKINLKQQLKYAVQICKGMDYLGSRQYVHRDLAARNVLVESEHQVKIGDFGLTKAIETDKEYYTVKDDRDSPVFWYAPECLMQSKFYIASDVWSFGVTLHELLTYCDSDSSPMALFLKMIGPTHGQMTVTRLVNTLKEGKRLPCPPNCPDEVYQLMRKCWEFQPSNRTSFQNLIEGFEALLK
recombinant JAK2 (amino acids 831-1132), sequence (O60674 831-1132): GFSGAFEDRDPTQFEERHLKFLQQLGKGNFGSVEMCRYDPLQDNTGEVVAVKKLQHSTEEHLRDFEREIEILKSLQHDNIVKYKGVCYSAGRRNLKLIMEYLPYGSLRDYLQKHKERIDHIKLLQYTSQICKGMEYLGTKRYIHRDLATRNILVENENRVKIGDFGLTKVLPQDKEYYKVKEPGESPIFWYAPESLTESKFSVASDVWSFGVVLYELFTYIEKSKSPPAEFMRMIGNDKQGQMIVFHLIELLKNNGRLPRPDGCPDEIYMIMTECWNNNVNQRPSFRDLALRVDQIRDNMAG

`CC[C@@H](C(=O)Nc1cccc2c(-c3nc(Nc4cccc(S(C)(=O)=O)c4F)ncc3C)c[nH]c12)N1C[C@@H](C)N[C@H](C)C1` [Example 27, (S)-2-((3R,5R)-3,5-dimethylpiperazin-1-yl)-N-(3-(2-((2-fluoro-3-(methylsulfonyl)phenyl)amino)-5-methylpyrimidin-4-yl)-1H-indol-7-yl)butanamide]: the IC50 (usually the midpoint of a concentration-inhibition curve) in test [1] was > 30000 nM; in test [2] it was 162 nM; in test [3], < 3 nM; in test [4], 41 nM.

Consider `COC[C@@H](C(=O)Nc1cccc2c(-c3nc(Nc4cccc(S(C)(=O)=O)c4F)ncc3C)c[nH]c12)N1C[C@@H](C)N[C@H](C)C1` [Example 28, (S)-2-((3R,5R)-3,5-dimethylpiperazin-1-yl)-N-(3-(2-((2-fluoro-3-(methylsulfonyl)phenyl)amino)-5-methylpyrimidin-4-yl)-1H-indol-7-yl)-3-methoxypropanamide], for which the IC50 in test [1] is > 30000 nM; in test [2] it was 7410 nM; in test [3] it was 45.2 nM; in test [4], 147 nM.

`COC[C@H](C(=O)Nc1cccc2c(-c3nc(Nc4cccc(S(C)(=O)=O)c4F)ncc3C)c[nH]c12)N1C[C@@H](C)N[C@H](C)C1` [Example 29, (R)-2-((3R,5R)-3,5-dimethylpiperazin-1-yl)-N-(3-(2-((2-fluoro-3-(methylsulfonyl)phenyl)amino)-5-methylpyrimidin-4-yl)-1H-indol-7-yl)-3-methoxypropanamide]: the IC50 was > 30000 nM in test [1], 1200 nM in test [2], < 3 nM in test [3] and 39.9 nM in test [4].

As to `CC[C@@H](C(=O)Nc1cccc2c(-c3nc(Nc4cccc(S(C)(=O)=O)c4F)ncc3F)c[nH]c12)N1C[C@@H](C)N[C@H](C)C1` [Example 30, (S)-2-((3R,5R)-3,5-dimethylpiperazin-1-yl)-N-(3-(5-fluoro-2-((2-fluoro-3-(methylsulfonyl)phenyl)amino)pyrimidin-4-yl)-1H-indol-7-yl)butanamide], the IC50 is > 30000 nM in test [1], 1160 nM in test [2], 14.2 nM in test [3] and 72 nM in test [4].

Regarding `CC[C@H](C(=O)Nc1cccc2c(-c3nc(Nc4cccc(S(C)(=O)=O)c4F)ncc3F)c[nH]c12)N1C[C@@H](C)N[C@H](C)C1` [Example 31, (R)-2-((3R,5R)-3,5-dimethylpiperazin-1-yl)-N-(3-(5-fluoro-2-((2-fluoro-3-(methylsulfonyl)phenyl)amino)pyrimidin-4-yl)-1H-indol-7-yl)butanamide], the IC50 in test [1] was > 30000 nM; in test [2], 1790 nM; in test [3], 6.4 nM; in test [4] it was 74 nM.

With `COC[C@@H](C(=O)Nc1cccc2c(-c3nc(Nc4cccc(S(C)(=O)=O)c4F)ncc3F)c[nH]c12)N1C[C@@H](C)N[C@H](C)C1` [Example 32], the IC50 is > 30000 nM in test [1], > 30000 nM in test [2], 482 nM in test [3] and 933 nM in test [4].

As for `COC[C@H](C(=O)Nc1cccc2c(-c3nc(Nc4cccc(S(C)(=O)=O)c4F)ncc3F)c[nH]c12)N1C[C@@H](C)N[C@H](C)C1` [Example 33, (R)-2-((3R,5R)-3,5-dimethylpiperazin-1-yl)-N-(3-(5-fluoro-2-((2-fluoro-3-(methylsulfonyl)phenyl)amino)pyrimidin-4-yl)-1H-indol-7-yl)-3-methoxypropanamide], the IC50 in test [1] is > 30000 nM; in test [2], 1930 nM; in test [3], < 3 nM; in test [4] it was 55 nM.

On to `CC[C@@H](C(=O)Nc1cccc2c(-c3nc(Nc4cccc(S(C)(=O)=O)c4F)ncc3C)c[nH]c12)N1CCCN(C)CC1` [Example 36, (S)-N-(3-(2-((2-fluoro-3-(methylsulfonyl)phenyl)amino)-5-methylpyrimidin-4-yl)-1H-indol-7-yl)-2-(4-methyl-1,4-diazepan-1-yl)butanamide], for which the IC50 in test [1] is > 30000 nM; in test [2] it was > 30000 nM; in test [3], 70.3 nM; in test [4], 167 nM.

As to `CC[C@H](C(=O)Nc1cccc2c(-c3nc(Nc4cccc(S(C)(=O)=O)c4F)ncc3C)c[nH]c12)N1CCCN(C)CC1` [Example 37, (R)-N-(3-(2-((2-fluoro-3-(methylsulfonyl)phenyl)amino)-5-methylpyrimidin-4-yl)-1H-indol-7-yl)-2-(4-methyl-1,4-diazepan-1-yl)butanamide], the IC50 is > 30000 nM in test [1], 968 nM in test [2], < 3 nM in test [3] and 26.9 nM in test [4].

In the case of `CC[C@H](C(=O)Nc1cccc2c(-c3nc(Nc4cccc(S(C)(=O)=O)c4F)ncc3F)c[nH]c12)N1CCN(C)CC1` [Example 38], the IC50 was > 30000 nM in test [1], 6870 nM in test [2], 3.3 nM in test [3] and 42.6 nM in test [4].

In the case of `CC[C@@H](C(=O)Nc1cccc2c(-c3nc(Nc4cccc(S(C)(=O)=O)c4F)ncc3F)c[nH]c12)N1CCN(C)CC1` [Example 39, (S)-N-(3-(5-fluoro-2-((2-fluoro-3-(methylsulfonyl)phenyl)amino)pyrimidin-4-yl)-1H-indol-7-yl)-2-(4-methylpiperazin-1-yl)butanamide], the IC50 in test [1] was > 30000 nM; in test [2], > 30000 nM; in test [3] it was 256 nM; in test [4], 446 nM.

In the case of `COC[C@@H](C(=O)Nc1cccc2c(-c3nc(Nc4cccc(S(C)(=O)=O)c4F)ncc3F)c[nH]c12)N1C[C@H](C)N(C)[C@@H](C)C1` [Example 40], the IC50 in test [1] was > 30000 nM; in test [2] it was > 30000 nM; in test [3], 3280 nM; in test [4], > 6250 nM.

With `COC[C@H](C(=O)Nc1cccc2c(-c3nc(Nc4cccc(S(C)(=O)=O)c4F)ncc3F)c[nH]c12)N1C[C@H](C)N(C)[C@@H](C)C1` [Example 41, (R)-N-(3-(5-fluoro-2-((2-fluoro-3-(methylsulfonyl)phenyl)amino)pyrimidin-4-yl)-1H-indol-7-yl)-3-methoxy-2-((3S,5S)-3,4,5-trimethylpiperazin-1-yl)propanamide], the IC50 is > 30000 nM in test [1], 4820 nM in test [2], 3.95 nM in test [3] and 58 nM in test [4].

As for `COC[C@H](C(=O)Nc1cccc2c(-c3nc(Nc4cccc(S(C)(=O)=O)c4F)ncc3C)c[nH]c12)N1CCCN(C)CC1` [Example 42, (R)-N-(3-(2-((2-fluoro-3-(methylsulfonyl)phenyl)amino)-5-methylpyrimidin-4-yl)-1H-indol-7-yl)-3-methoxy-2-(4-methyl-1,4-diazepan-1-yl) propanamide], the IC50 in test [1] is > 30000 nM; in test [2], 604 nM; in test [3] it was < 3 nM; in test [4], 36 nM.

As to `COC[C@@H](C(=O)Nc1cccc2c(-c3nc(Nc4cccc(S(C)(=O)=O)c4F)ncc3C)c[nH]c12)N1CCCN(C)CC1` [Example 43, (S)-N-(3-(2-((2-fluoro-3-(methylsulfonyl)phenyl)amino)-5-methylpyrimidin-4-yl)-1H-indol-7-yl)-3-methoxy-2-(4-methyl-1,4-diazepan-1-yl)propanamide], the IC50 in test [1] was > 30000 nM; in test [2], > 30000 nM; in test [3], 95 nM; in test [4] it was 477 nM.
